Among the data in patent publication EP2970215B1, “PYRROLIDINE DERIVATIVES, PHARMACEUTICAL COMPOSITIONS CONTAINING THEM, AND THEIR USE IN THERAPY” (AbbVie Deutschland GmbH & Co. KG, priority 2013, dated 2014) are Ki values, retold here.

The structures appear in SMILES notation.

The target in the first assay is T1, human GlyT1c transporter (Homo sapiens, UniProt P48067).
T1 construct: expressed in transfected cells; host or cells: CHO cells (recombinant; line hGlyT1c_5_CHO is named for the uptake assay)
T1 sequence (P48067 1-706): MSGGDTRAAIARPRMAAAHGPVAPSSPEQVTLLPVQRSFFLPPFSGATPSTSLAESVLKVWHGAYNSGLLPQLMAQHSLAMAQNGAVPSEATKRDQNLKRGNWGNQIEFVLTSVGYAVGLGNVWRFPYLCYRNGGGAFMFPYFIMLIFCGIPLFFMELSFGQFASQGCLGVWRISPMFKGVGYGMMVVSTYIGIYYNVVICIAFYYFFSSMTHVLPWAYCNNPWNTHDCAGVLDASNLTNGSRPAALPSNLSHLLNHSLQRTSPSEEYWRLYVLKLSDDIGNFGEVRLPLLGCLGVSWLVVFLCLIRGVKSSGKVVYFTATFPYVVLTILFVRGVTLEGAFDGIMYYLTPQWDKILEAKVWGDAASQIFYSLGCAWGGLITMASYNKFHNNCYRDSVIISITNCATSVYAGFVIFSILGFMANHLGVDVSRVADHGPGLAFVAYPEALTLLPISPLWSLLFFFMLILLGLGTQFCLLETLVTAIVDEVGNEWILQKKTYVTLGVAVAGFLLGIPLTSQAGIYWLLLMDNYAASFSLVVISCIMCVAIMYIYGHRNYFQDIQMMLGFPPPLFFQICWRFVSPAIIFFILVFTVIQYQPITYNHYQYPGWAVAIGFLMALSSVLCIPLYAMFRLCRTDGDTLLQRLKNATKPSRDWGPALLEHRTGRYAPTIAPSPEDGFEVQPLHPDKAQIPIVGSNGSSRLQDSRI
Description: Radioligand binding assay using recombinant CHO cell membranes expressing human GlyT1. The conditions noted are these: radioligand binding to human GlyT1c transporter-expressing membranes. The source says:
2. Radioligand binding assays using recombinant CHO cell membranes expressing human GlyT1: […]
What is called Ki is a measure of affinity in units of concentration, obtained from inhibition or displacement. For `Cn1cnc(S(=O)(=O)N2C[C@H](NCC3(C)CCOCC3)[C@@H](c3ccccc3)C2)c1` [Example 429, (3R,4S)-1-[(1-methyl-1H-imidazol-4-yl)sulfonyl]-N-[(4-methyltetrahydro-2H-pyran-4-yl)methyl]-4-phenylpyrrolidin-3-amine], the Ki was greater than 10000 nM.
For the molecule `Cn1cnc(S(=O)(=O)N2C[C@H](NC(=O)Nc3ccc(F)cc3)[C@@H](c3ccc(F)cc3)C2)c1` [Example 704, 1-(4-fluorophenyl)-3-{(3R,4S)-4-(4-fluorophenyl)-1-[(1-methyl-1H-imidazol-4-yl)sulfonyl]pyrrolidin-3-yl}urea], the inhibitory constant (Ki) was no more than 1000 nM.
On the same count and under the same terms, then `Cn1cnc(S(=O)(=O)N2C[C@@H](Oc3cc(C(F)(F)F)ccn3)[C@H](c3ccc(F)cc3)C2)c1` (relative stereo) [Example 379, 2-({trans-4-(4-fluorophenyl)-1-[(1-methyl-1H-imidazol-4-yl)sulfonyl]pyrrolidin-3-yl}oxy)-4-(trifluoromethyl)pyridine], with no more than 100 nM; and `Cn1cnc(S(=O)(=O)N2C[C@H](Nc3ccc(F)c(OC(F)(F)F)c3)[C@@H](c3ccccc3)C2)c1` [Example 646, (3R,4S)-N-[4-fluoro-3-(trifluoromethoxy)phenyl]-1-[(1-methyl-1H-imidazol-4-yl)sulfonyl]-4-phenylpyrrolidin-3-amine], with no more than 10 nM.
The same measure, in the same setting: then `Cn1cnc(S(=O)(=O)N2C[C@H](NCc3nc4ccccc4s3)[C@@H](c3ccccc3)C2)c1` [Example 453, (3R,4S)-N-(1,3-benzothiazol-2-ylmethyl)-1-[(1-methyl-1H-imidazol-4-yl)sulfonyl]-4-phenylpyrrolidin-3-amine], with no more than 1000 nM; and `COc1ccccc1C(=O)N[C@@H]1CN(S(=O)(=O)c2cn(C)cn2)C[C@H]1c1ccccc1` (relative stereo) [Example 20, 2-methoxy-N-{trans-1-[(1-methyl-1H-imidazol-4-yl)sulfonyl]-4-phenylpyrrolidin-3-yl}benzamide], with no more than 10000 nM; and `Cn1cnc(S(=O)(=O)N2C[C@@H](Nc3ccc(F)c(Cl)c3)[C@H](c3ccccc3)C2)c1` (relative stereo) [Example 215, trans-N-(3-chloro-4-fluorophenyl)-1-[(1-methyl-1H-imidazol-4-yl)sulfonyl]-4-phenylpyrrolidin-3-amine], with no more than 100 nM.
For `Cn1cnc(S(=O)(=O)N2C[C@@H](CNc3ccc(C(F)(F)F)cc3)[C@H](c3ccc(F)cc3)C2)c1` (relative stereo) [Example 291, N-({trans-4-(4-fluorophenyl)-1-[(1-methyl-1H-imidazol-4-yl)sulfonyl]pyrrolidin-3-yl}methyl)-4-(trifluoromethyl)aniline], the Ki is no more than 100 nM.
As to `COc1ccc(S(=O)(=O)N2C[C@@H](NC(=O)c3cccc(C(F)(F)F)c3Cl)[C@H](c3ccccc3)C2)cn1` (relative stereo) [Example 44, 2-chloro-N-{trans-1-[(6-methoxypyridin-3-yl)sulfonyl}-4-phenylpyrrolidin-3-yl}-3-(trifluoromethyl)benzamide], the Ki is no more than 10000 nM.
On the same count and under the same terms, the result for `Cn1cnc(S(=O)(=O)N2C[C@H](NCc3nc(Br)cs3)[C@@H](c3ccccc3)C2)c1` [Example 472, (3R,4S)-N-[(4-bromo-1,3-thiazol-2-yl)methyl]-1-[(1-methyl-1H-imidazol-4-yl)sulfonyl]-4-phenylpyrrolidin-3-amine] reads no more than 1000 nM; that for `COc1ccc(S(=O)(=O)N2C[C@@H](NC(=O)c3cccc(C(F)(F)F)c3Cl)[C@H](c3ccccc3)C2)cc1` (relative stereo) [Example 136, 2-chloro-N-{trans-1-[(4-methoxyphenyl)sulfonyl]-4-phenylpyrrolidin-3-yl}-3-(trifluoromethyl)benzamide], no more than 10000 nM.
Same read-out and setting: the result for `Cn1cnc(S(=O)(=O)N2C[C@@H](NC(=O)c3ccc(C#N)cc3)[C@H](c3ccccc3)C2)c1` (relative stereo) [Example 34, 4-cyano-N-{trans-1-[(1-methyl-1H-imidazol-4-yl)sulfonyl]-4-phenylpyrrolidin-3-yl} benzamide] reads no more than 10000 nM; that for `Cn1cnc(S(=O)(=O)N2C[C@H](NC(=O)C3(C(F)(F)F)CC3)[C@@H](c3ccc(F)cc3)C2)c1` [Example 375, N-{(3R,4S)-4-(4-fluorophenyl)-1-[(1-methyl-1H-imidazol-4-yl)sulfonyl]pyrrolidin-3-yl}-1-(trifluoromethyl)cyclopropanecarboxamide], no less than 10000 nM.
Regarding `CCS(=O)(=O)N1C[C@@H](NC(=O)c2cc(Cl)cc(Cl)c2)[C@H](c2ccccc2)C1` (relative stereo) [Example 123, 3,5-dichloro-N-[trans-1-(ethylsulfonyl)-4-phenylpyrrolidin-3-yl]benzamide], the Ki was no more than 10000 nM.
Regarding `Cn1cnc(S(=O)(=O)N2C[C@H](NC(=O)CC3CC3)[C@@H](c3ccccc3)C2)c1` [Example 546, 2-cyclopropyl-N-{(3R,4S)-1-[(1-methyl-1H-imidazol-4-yl)sulfonyl]-4-phenylpyrrolidin-3-yl}acetamide], the Ki is no less than 10000 nM.
On the same count and under the same terms, the result for `Cn1cnc(S(=O)(=O)N2C[C@@H](NCc3ccc(C(F)(F)F)cc3Cl)[C@H](c3ccccc3F)C2)c1` (relative stereo) [Example 283, trans-N-[2-chloro-4-(trifluoromethyl)benzyl] -4-(2-fluorophenyl)-1-[(1-methyl-1H-imidazol-4-yl)sulfonyl]pyrrolidin-3-amine] reads no more than 100 nM.
The same measure, in the same setting: the result for `Cn1cnc(S(=O)(=O)N2C[C@@H](Nc3cccc(C#N)c3F)[C@H](c3ccccc3)C2)c1` (relative stereo) [Example 77, 2-fluoro-3-({trans-1-[(1-methyl-1H-imidazol-4-yl)sulfonyl]-4-phenylpyrrolidin-3-yl}amino)benzonitrile] reads no more than 1000 nM; that for `Cn1cnc(S(=O)(=O)N2CC(Nc3ccc(F)c(F)c3)C(C3CCCO3)C2)c1` (centres unmarked) [Example 610, N-(3,4-difluorophenyl)-1-[(1-methyl-1H-imidazol-4-yl)sulfonyl]-4-[-tetrahydrofuran-2-yl]pyrrolidin-3-amine], no more than 10000 nM.
Same read-out and setting: the result for `Cn1cnc(S(=O)(=O)N2C[C@H](NCCOc3ccc(F)cc3)[C@@H](c3ccc(F)cc3)C2)c1` [Example 667, (3R,4S)-N-[2-(4-fluorophenoxy)ethyl]-4-(4-fluorophenyl)-1-[(1-methyl-1H-imidazol-4-yl)sulfonyl]pyrrolidin-3-amine] reads no more than 100 nM; that for `Cn1cnc(S(=O)(=O)N2C[C@H](Nc3cccc(C(C)(O)C(F)(F)F)c3)[C@@H](c3ccc(F)cc3)C2)c1` (stereo partly drawn) [Example 392, 1,1,1-trifluoro-2-[3-({(3R,4S)-4-(4-fluorophenyl)-1-[(1-methyl-1H-imidazol-4-yl)sulfonyl]pyrrolidin-3-yl}amino)phenyl]propan-2-ol], no more than 100 nM.
In the case of `Cn1cnc(S(=O)(=O)N2C[C@@H](NC(=O)c3cccc(C(F)(F)F)c3Cl)[C@H](c3ccc(F)cc3)C2)c1` (relative stereo) [Example 3, 2-chloro-N-{trans-4-(4-fluorophenyl)-1-[(1-methyl-1H-imidazol-4-yl)sulfonyl]pyrrolidin-3-yl}-3-(trifluoromethyl)benzamide], the Ki is no more than 100 nM.
On the same count and under the same terms, then `Cn1cnc(S(=O)(=O)N2C[C@@H](C(=O)Nc3ccc(C(F)(F)F)c(Cl)c3)[C@H](c3ccc(F)cc3)C2)c1` (relative stereo) [Example 276, trans-N-[3-chloro-4-(trifluoromethyl)phenyl]-4-(4-fluorophenyl)-1-[(1-methyl-1H-imidazol-4-yl)sulfonyl]pyrrolidine-3-carboxamide], with no more than 1000 nM; and `Cn1cnc(S(=O)(=O)N2C[C@@H](S(=O)(=O)c3ccccc3)[C@H](c3ccccc3)C2)c1` (relative stereo) [Example 385, 1-methyl-4-{[trans-3-phenyl-4-(phenylsulfonyl)pyrrolidin-1-yl]sulfonyl}-1H-imidazole], with no more than 10000 nM; and `Cn1cnc(S(=O)(=O)N2C[C@@H](Nc3ccc(Cl)cc3)[C@H](c3ccccc3)C2)c1` (relative stereo) [Example 75, trans-N-(4-chlorophenyl)-1-[(1-methyl-1H-imidazol-4-yl)sulfonyl]-4-phenylpyrrolidin-3-amine], with no more than 1000 nM.

The assay is the same for the next values; noted with them: radioligand binding, recombinant CHO cell membranes expressing human GlyT1c.
Take `Cn1cnc(S(=O)(=O)N2CC3c4ccccc4CCC3(NCc3ccc(C(F)(F)F)cc3Cl)C2)c1` (centres unmarked) [Example 890, N-[2-chloro-4-(trifluoromethyl)benzyl]-2-[(1-methyl-1H-imidazol-4-yl)sulfonyl]-1,2,3,4,5,9b-hexahydro-3aH-benzo[e]isoindol-3a-amine]: the Ki was no more than 100 nM.
As for `Cn1cnc(S(=O)(=O)N2C[C@@H](Nc3cccc(Cl)c3)[C@H](C3CCCCO3)C2)c1` (relative stereo) [Example 849, Trans-N-(3-chlorophenyl)-1-[(1-methyl-1H-imidazol-4-yl)sulfonyl]-4-(tetrahydro-2H-pyran-2-yl)pyrrolidin-3-amine], the Ki was no more than 100 nM.
